Test results reported in patent US20220040122A1, “COMPOSITION FOR ALLERGY PREVENTION, ATOPIC DERMATITIS ALLEVIATION OR SKIN REGENERATION, CONTAINING, AS ACTIVE INGREDIENT, UNDECANE OR UNDECANAL” (BOTANICSENS, priority 2019, published 2022).
Entries after “also recorded” stand apart in the source; their conditions may differ.

Columns and labels:
[1] = test system: Mast cells (rat basophilic leukemia cell line, RBL-2H3); assay: Inflammatory cytokine expression (real-time PCR) in anti-DNP-IgE/DNP-HSA-stimulated mast cells; format: cell-based; details: 1 h before DNP-HSA induction, vs immune-response-induced control
Method: Then, it was sensitized with anti-DNP (dinitrophenyl)-IgE (30 ng/ml) and cultured for 24 hours at 37° C., 5% CO2 in an incubator. After washing twice with PBS (phosphate buffered saline), DNP-HSA (dinitrophenylated human serum albumin; 10 μg/ml) was treated for 4 hours to induce an immune response. In addition, in order to evaluate atopy alleviating effect by undecane, mast cells treated with anti-DNP (dinitrophenyl)-IgE and cultured for 24 hours were treated with 100 μM of undecane, cultured for 1 hour, and then an immune response was induced with DNP-HSA. Normal cells were treated with DMSO instead of undecane under the same conditions as undecane-treated cells, and positive control cells were treated with 10 μM of tacrolimus instead of undecane and cultured for 1 hour, and then, an immune response was induced with DNP-HSA.
After removing the supernatant of the mast cells that induced the immune response, 1 ml of trizol was added, left for 2 minutes, and chloroform was added, vortexed for 10 seconds, centrifuged at 5,000 rpm for 10 minutes, and the upper layer was taken, and mixed with the same amount of isopropanol and shaken. The supernatant was removed by centrifugation at 13,000 rpm for 25 minutes, and the pellet was dissolved in 20 μl of diethyl pyrocarbonate (DEPC)-DW and stored at −20° C. and then used in the experiment. RT-PCR was performed using a one-step RT-PCR PreMixkit (iNtRON Biotechnology, Korea) at 45° C. for 30 minutes and at 94° C. for 5 minutes, followed by denaturation at 94° C. for 30 seconds, and then after annealing at 55° C. for 30 seconds, the cycle of extension at 72° C. for 1 minute was repeated 32 times, and the last extension was performed at 72° C. for 5 minutes, and PiQ SYBR green supermix (Bio-Rad) and CFX Connect™ Real-Time PCR Detection System (Bio-Rad) was used to perform quantitative PCR, and the primer sequences used are as shown in Table 1. […]
Then, it was sensitized with anti-DNP (dinitrophenyl)-IgE (30 ng/ml) and cultured for 24 hours at 37° C., 5% CO2 in an incubator. After washing twice with PBS (phosphate buffered saline), DNP-HSA (dinitrophenylated human serum albumin; 10 μg/ml) was treated for 4 hours to induce an immune response. In addition, in order to evaluate an effect of alleviating atopy by undecanal, mast cells treated with anti-DNP (dinitrophenyl)-IgE and cultured for 24 hours were treated with 100 μM of undecanal, cultured for 1 hour, and then an immune response was induced with DNP-HSA. Normal cells were treated with DMSO instead of undecanal under the same conditions as undecanal-treated cells, and positive control cells were treated with 10 μM of tacrolimus instead of undecanal and cultured for 1 hour, and then, an immune response was induced with DNP-HSA. […]

[2] = test system: Keratinocytes (human keratinocyte cell line, HaCaT); assay: Inflammatory cytokine expression (real-time PCR) in TNF-α/IFN-γ-stimulated keratinocytes; format: cell-based; details: 24 h, vs immune-response-induced control
Method: (§1) Keratinocytes (human keratinocyte cell line, HaCaT) were purchased from ATCC (Manassas, Va., USA) and used. For cell culture, the culture medium of DMEM containing 10% fetal bovine serum (FBS) and antibiotics was used. The culture vessel used a 75T-flask and a 6-well plate, and cultured in a 37° C. incubator supplied with 5% CO2. The culture medium was changed every 3 to 4 days, and subculture was performed when the cells were excessively proliferated. The dispensed HaCaT cells (5×10^5/well) were cultured for 24 hours and then washed with PBS. In order to induce an immune response to keratinocytes, TNF-α (tumor necrosis factor-α) (10 ng/ml) and IFN-γ (interferon gamma) (10 ng/ml) were treated together in DMEM medium without FBS and incubated for 24 hours. At this time, in order to evaluate the efficacy of alleviating the immune response of undecane, 100 μM of undecane was simultaneously treated, and in the case of normal cells, DMSO instead of undecane, and in the case of positive control cells, 10 μM of tacrolimus instead of undecane were treated simultaneously with the immune response inducer and incubated for 24 hours.
After removing the supernatant of the mast cells that induced the immune response, 1 ml of trizol was added, left for 2 minutes, and chloroform was added, vortexed for 10 seconds, centrifuged at 5,000 rpm for 10 minutes, and the upper layer was taken, and mixed with the same amount of isopropanol and shaken. The supernatant was removed by centrifugation at 13,000 rpm for 25 minutes, and the pellet was dissolved in 20 μl of diethyl pyrocarbonate (DEPC)-DW and stored at −20° C. and then used in the experiment. RT-PCR was performed using a one-step RT-PCR PreMixkit (iNtRON Biotechnology, Korea) at 45° C. for 30 minutes and at 94° C. for 5 minutes, followed by denaturation at 94° C. for 30 seconds, and then after annealing at 55° C. for 30 seconds, the cycle of extension at 72° C. for 1 minute was repeated 32 times, and the last extension was performed at 72° C. for 5 minutes, and PiQ SYBR green supermix (Bio-Rad) and CFX Connect™ Real-Time PCR Detection System (Bio-Rad) was used to perform quantitative PCR, and the primer sequences used are as shown in Table 1.
as §1, with “undecanal,” for “undecane,”, “undecanal” for “undecane”
RNA isolation and real-time PCR (quantitative reverse-transcription polymerase chain reaction) using a Trizol method was performed by the same method as 3) RNA isolation using the Trizol method and real-time PCR of 1-1. of Example 1 described above.

rats [3] = details: chronic oral administration; cited from earlier work
rats [4] = details: rat, in vivo, po; cited from earlier work
rats [5] = details: cited from earlier work
[6] = positive control 10 μM together with TNF-α and IFN-γ
[7] = 100 μM test compound together with TNF-α and IFN-γ

SMILES: C=CC[C@@H]1/C=C(\C)C[C@H](C)C[C@H](OC)[C@H]2O[C@@](O)(C(=O)C(=O)N3CCCC[C@H]3C(=O)O[C@H](/C(C)=C/[C@@H]3CC[C@@H](O)[C@H](OC)C3)[C@H](C)[C@@H](O)CC1=O)[C@H](C)C[C@@H]2OC [tacrolimus, reference compound]
- expression of IL-4 ([1]; positive control 10 μM): significantly reduced
- expression of IL-13 ([1]; positive control 10 μM): significantly reduced
- expression of TNF-α ([1]; positive control 10 μM): significantly reduced
- expression of IL-1β [2, 6]: significantly reduced
- expression of IL-6 [2, 6]: significantly reduced
- expression of IL-8 [2, 6]: significantly reduced

SMILES: CCCCCCCCCCC=O [undecanal]
- expression of IL-4 ([1]; 100 μM test compound): significantly reduced; also recorded: remarkably reduced
- expression of IL-13 ([1]; 100 μM test compound): significantly reduced; also recorded: remarkably reduced
- expression of TNF-α ([1]; 100 μM test compound): significantly reduced; also recorded: remarkably reduced
- expression of IL-1β [2, 7]: significantly reduced; also recorded: remarkably reduced
- expression of IL-6 [2, 7]: significantly reduced; also recorded: remarkably reduced
- expression of IL-8 [2, 7]: significantly reduced; also recorded: remarkably reduced
- no-observed-adverse-effect level (NOAEL) (rats [3]): about 1000 mg/kg bw
- LD50 (lethal dose, 50%) (rats [4]): > 5,000 mg/kg bw/day

SMILES: CCCCCCCCCCC [undecane]
- expression of IL-4 ([1]; 100 μM test compound): significantly reduced; also recorded: remarkably reduced
- expression of IL-13 ([1]; 100 μM test compound): significantly reduced; also recorded: remarkably reduced
- expression of TNF-α ([1]; 100 μM test compound): significantly reduced; also recorded: remarkably reduced
- expression of IL-1β [2, 7]: significantly reduced; also recorded: remarkably reduced
- expression of IL-6 [2, 7]: significantly reduced; also recorded: remarkably reduced
- expression of IL-8 [2, 7]: significantly reduced; also recorded: remarkably reduced
- LD50 (lethal dose, 50%) for inhalation toxicity (rats [5]): about 442 ppm/8H
